Laboratory results published in patent US7465752B2, “Pentenoic acid derivatives, processes for the preparation thereof, pharmaceutical compositions comprising them, and therapeutic applications thereof” (Merck Patent GmbH, priority 2004, dated 2008).

Experiments:
GaI4 alone = conditions: vector expressing GaI4 alone, in the presence of the product
Experimental: (§1) CV-1 cells (monkey kidney cells) are co-transfected with an expression vector for the chimeric proteins PPARα-GaI4 or PPARγ-GaI4 and with a “reporter” plasmid that allows the expression of the luciferase gene placed under the control of a promoter comprising GaI4 response elements.
(§2) The cells are plated into 96-well microplates and co-transfected using a commercial reagent with the reporter plasmid (pG5-tk-pGL3) and the expression vector for the chimeric protein (PPARα-GaI4 or PPARγ-GaI4). After incubating for 4 hours, whole culture medium (comprising 10% foetal calf serum) is added to the wells. After 24 hours, the medium is removed and replaced with whole medium comprising the test products (50 μM final). The products are left in contact with the cells for 18 hours. The cells are then lysed and the luciferase activity is measured using a luminometer.

[1] = biological target: chimeric protein PPARα-GaI4 (Homo sapiens, UniProt Q07869); conditions: 50 μM, 18 hours contact, CV-1 cells
chimeric protein PPARα-GaI4, sequence (Q07869 239-466 limits assumed, change not shown): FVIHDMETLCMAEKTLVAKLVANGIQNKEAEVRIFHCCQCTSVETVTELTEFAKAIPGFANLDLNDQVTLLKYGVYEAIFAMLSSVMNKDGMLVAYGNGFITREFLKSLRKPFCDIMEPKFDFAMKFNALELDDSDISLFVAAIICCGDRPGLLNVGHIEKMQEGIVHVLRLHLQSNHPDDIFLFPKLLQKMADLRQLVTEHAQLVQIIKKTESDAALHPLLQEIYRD
Experimental: (§3) The measurement of the PPAR activation was performed according to a lo technique described by Lehmann et al. (1995, J. Biol. Chem., 270, 12953-12956).
as §1, §2

[2] = biological target: chimeric protein PPARγ-GaI4 (Homo sapiens, UniProt P37231); conditions: 50 μM, 18 hours contact, CV-1 cells
chimeric protein PPARγ-GaI4, sequence (P37231 238-503 limits assumed, change not shown): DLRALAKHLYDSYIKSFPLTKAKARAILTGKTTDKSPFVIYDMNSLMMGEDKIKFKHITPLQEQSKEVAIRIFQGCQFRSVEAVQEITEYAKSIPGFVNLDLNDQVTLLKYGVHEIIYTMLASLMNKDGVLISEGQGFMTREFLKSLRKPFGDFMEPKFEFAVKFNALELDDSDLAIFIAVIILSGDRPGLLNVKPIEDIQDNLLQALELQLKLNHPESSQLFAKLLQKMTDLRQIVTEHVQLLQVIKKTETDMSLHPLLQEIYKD
Experimental: as §3, §1, §2

db/db mice = conditions: 100 mg/kg/day orally for 15 days
Experimental: The antidiabetic and hypolipidaemiant activity of the compounds was determined orally on db/db mice.
Nine-week-old db/db mice are treated orally for 15 days with the compound of Example 6 (100 mg/kg/day). Each group studied comprises seven animals. After treatment for 15 days, retro-orbital samples are taken under mild anaesthesia and after fasting for four hours.
The following parameters were measured:
Assay of the glycaemia (glucose oxidase) and of the lipid parameters on the sera at D15 (COBAS): triglycerides, total cholesterol (CHOL), HDL cholesterol (HDL-C) and free fatty acids (FFA) (BioMérieux and Waco Chemicals assay kit).
The measurements reported represent mean values±standard error.

[3] = serum at D15, fasted 4 hours, mean ± standard error

## O=C(O)[C@@H](CC=Cc1ccccc1)Oc1ccc(-c2cc3ccccc3s2)cc1 (racemic) [Example 6, (R,S)-2-{[4-(benzo[b]thiophen-2-yl)phenyl]oxy}-5-phenylpent-4-enoic acid]
GaI4 alone
  luciferase activity in absence of the PPAR α or γ ligand binding domain: zero
[1]
  PPAR activation factor (reporter gene expression relative to control cells): 7
[2]
  PPAR activation factor (reporter gene expression relative to control cells): 21
db/db mice; D15, not significant
  FFA, % var. (percentage of variation versus control): −10% (ns)
db/db mice; D15, p < 0.01 versus control
  CHOL, % var. (percentage of variation versus control): −20% (**)
  Glycaemia, % var. (percentage of variation versus control): −50% (**)
  HDL-C, % var. (percentage of variation versus control): −25% (**)
db/db mice; D15, p < 0.05 versus control
  Triglycerides, % var. (percentage of variation versus control): −31% (*)
db/db mice; [3]
  CHOL (total cholesterol): 2.98 ± 0.25 mM
  FFA (free fatty acids): 0.78 ± 0.18 mM
  Glycaemia: 14.93 ± 4.29 Mm
  HDL-C: 2.31 ± 0.20 Mm
  Triglycerides: 1.47 ± 0.59 mM
